Legend:
[1] = tested on: naïve CD4+ T cells / CD4+CD25+Foxp3+ iTregs; test: iTreg induction from naive CD4+ T cells in the absence or presence of iRGD or iRGE; type: cell-based, mouse
Method: (§1) Naïve CD4^+ T cells and nTregs were isolated from the spleen of healthy C57B6129SF1/J mice by magnetic separation using a mouse CD4+ T cell isolation kit and PE-conjugated anti-mouse CD25 with anti-PE magnetic separation micro beads (Miltenyi Biotec™). The isolated T cells were stimulated with anti-CD3/CD28 beads (×25 dilution; Miltenyi Biotec™) in the presence or absence of recombinant mouse TGF-β1 (5 ng/ml; Bio-Techne™ Corporation) for 3 days. iRGD (100 μM) or iRGE (100 μM) peptide was added to the cultures in some experiments. To study the effect of TGF-β1 on the induction of αvβ5 integrin+ iTregs, naïve CD4+ T cells were cultured with anti-CD3/CD28 beads (x 25 dilution) and TGF-β1 (5 ng/ml) in the presence or absence of varying concentrations of a TGF-βR1 inhibitor (LY2157299; Selleck™ Chemicals LLC). To study the effect of TCR stimulation on the induction of αvβ5 integrin+ iTregs, naïve CD4+ T cells treated with varying concentrations of plate-coated anti-mouse CD3 Ab (eBioscience™) in the presence of soluble anti-mouse CD28 Ab (2 μg/ml) (eBioscience™) and TGF-β1 (5 ng/ml). The cells were subjected to flow cytometry as described elsewhere.
For the data presented in FIG. 31, FIG. 32A, and FIG. 32B, naïve CD4+ T cells were stimulated with anti-CD3/CD28 Abs and TGF-β1 in the absence or presence of iRGD or iRGE. Flow cytometry was performed to quantify the proportion of CD4+CD25+Foxp3+ iTregs (see FIG. 31) and αvβ5 integrin+ cells among the iTregs (See FIG. 32A). Apoptosis of αvβ5 integrin+ iTregs was quantitated by measuring cleaved caspase 3 using flow cytometry (see FIG. 32B; n=3).
To investigate whether iRGD Reduces CD4+CD25+Foxp3+ iTregs in an RGD-Dependent Manner in Vitro, naïve CD4+ T cells were stimulated with anti-CD3/CD28 Abs and TGF-β1 in the absence or presence of the iRGD or iRGE peptide. The resulting cells were subjected to flow cytometry to analyze the expression of CD25 and Foxp3 in the CD4+ T cells (FIG. 33A) and the expression of the αvβ5 integrin and NRP-1 on CD4+CD25+Foxp3+ iTregs (FIG. 33B). The bar diagram in (FIG. 33C) summarizes the proportion of NRP-1+ cells among the iTregs. The statistical analysis used was the one-way ANOVA; p=0.8221. n=3 per group.
The proportion of apoptotic αvβ5 integrin+ iTregs (FIG. 34) and CD4+Foxp3neg T cells (FIG. 35) was quantitated by measuring cleaved caspase 3 using flow cytometry. The statistical analysis used was Welch's t test; p=0.0705 (n=3). The dot plots and histograms of FIG. 33C and FIG. 35 show representative data from the 3 independent experiments. The error bars indicate the mean±standard error; N.S., not significant.

naïve CD4+ T cells = test: iTreg induction from naive CD4+ T cells with TGF-βR1 inhibitor; type: cell-based, mouse
Method: as §1
Naive CD4+ T cells isolated from healthy mice were expanded in the presence of anti-CD3/CD28 Abs, exogenous TGF-β1, and increasing doses of a TGF-βR1 inhibitor (LY2157299). […] The bar diagram of FIG. 25B summarizes the results from 3 independent experiments. The statistical analysis used was one-way ANOVA; p<0.0001 (0 vs 1), p<0.0001 (1 vs 3), p=0.0154 (3 vs 10).
The bar diagram of FIG. 26B summarizes the results from 3 independent experiments. The statistical analysis used was one-way ANOVA; p=0.3996 (αvβ5, 0 vs 1), p=0.5868 (αvβ5, 0 vs 3), p=0.2265 (NRP-1, 0 vs 1), p=0.5751 (NRP-1, 0 vs 3). The error bars indicate the mean±standard error; *p<0.05; ****p<0.0001; N.S., not significant.

[2] = peptide 100 μM, anti-CD3/CD28 Abs and TGF-β1

| Compound | apoptosis of CD4+Foxp3neg T cells (cleaved caspase 3) ([1]; flow cytometry) | proportion of CD4+CD25+Foxp3+ iTregs [1, 2] | αvβ5 integrin-positive population among the iTregs [1, 2] | proportion of the NRP-1-positive iTregs (naïve CD4+ T cells; among iTregs) | proportion of the αvβ5-positive iTregs (naïve CD4+ T cells; among iTregs) | development of iTregs (CD4+Foxp3+ T cells) from naïve CD4+ T cells (naïve CD4+ T cells; anti-CD3/CD28 Abs, exogenous TGF-β1, increasing doses of inhibitor) |
| --- | --- | --- | --- | --- | --- | --- |
| CRGEKGPDC [iRGE, an iRGD variant that lacks the RGD motif, reference compound] | Neither iRGD nor iRGE increased the apoptosis | ineffective | ineffective | – | – | – |
| Cc1cccc(-c2nn3c(c2-c2ccnc4ccc(C(N)=O)cc24)CCC3)n1 [LY2157299] | – | – | – | did not affect | did not affect | suppressed the development of iTregs from naïve CD4+ T cells in a dose-dependent manner |
